# Like-named read-outs stand apart in the source and are kept apart here.
# What was measured:
# HEK293 cells = assay: In vitro cytotoxicity, XTT, five days
# Experimental: (§1) Three compounds (Compound I, Compound II and Compound III) were solubilized at 40 mM in DMSO and stored at −20° C. The test compounds were evaluated using a high test concentration of 50 μM. Serial half-logarithmic dilutions were performed for the in vitro cytotoxicity assays.
# (§2) Cells listed in Table 70 were enumerated by Trypan Blue Dye exclusion method and seeded in the interior wells of a 96 well flat bottom microtiter plate at 100 μL/well. Proliferating cells were incubated overnight at 37° C./5% CO2 to allow the cells to adhere to the plates at approximately 70% confluency. Tissue culture medium was removed and replaced with 100 μL/well of fresh medium. One-hundred microliters (100 μL) of each compound at six concentrations was transferred to the 96-well plate containing the cells in triplicate. Table 70 lists the cell line, type of cell, source of cell stock, base tissue culture medium supplemented with 10% fetal bovine serum, 2 mM L-glutamine, 100 U/mL penicillin and 100 μg/mL streptomycin, and microtiter plate seeding density.
# (§3) Following incubation at 37° C. in a 5% CO2 incubator for five days, the test plates were stained with the tetrazolium dye XTT (2,3-bis(2-methoxy-4-nitro-5-sulfopheny1)-5-[(phenylamino)carbonyl]-2H-tetrazolium hydroxide). XTT-tetrazolium was metabolized by the mitochondrial enzymes of metabolically active cells to a soluble formazan product. XTT solution was prepared daily as a stock of 1 mg/ml in RPM11640. Phenazine methosulfate (PMS) solution was prepared at 0.15 mg/ml in PBS and stored in the dark at −20° C. XTT/PMS stock was prepared immediately before use by adding 40 μL of PMS per ml of XTT solution. Fifty microliters of XTT/PMS were added to each well of the plate and the plate was reincubated for 4 hours at 37° C. Plates were sealed with adhesive plate sealers and shaken gently or inverted several times to mix the soluble formazan product and the plate was read spectrophotometrically at 450/650 nm with a Molecular Devices Vmax plate reader.
# (§4) Microsoft Excel 2010 was used to analyze and graph the raw data. […] Raw data for cytotoxicity with a graphic representation of the data are provided in a printout summarizing the compound effect on cell viability.
# (§5) Compounds I, II, and III were evaluated for cytotoxicity to proliferating Hs27, HeLa, C33A and HEK293 cells by measuring cell viability using XTI tetrazolium dye following five days in culture (Table 71).
# [1] = Behavior under compression, grinding and granulation simulation (XRPD); format: physicochemical
# Experimental: About 10 mg of Compound I monofumarate Pattern 1 (Example 7) was compressed for 5 minutes at 10 MPa with a hydraulic press. XRPD characterization was performed to investigate the polymorphic behavior under compression.
# About 10 mg of Compound I monofumarate Pattern 1 (Example 7) was ground manually with a mortar and pestle for 5 min. Form transformation and degree of crystallinity was evaluated by XRPD.
# Water or ethanol was added drop wise to about 10 mg of Compound I monofumarate Pattern 1 (Example 7) until solids were wetted sufficiently. The samples were ground manually with a mortar and pestle for 3 minutes. Samples are dried under ambient condition for 10 min.
# Form transformation and degree of crystallinity were evaluated by XRPD.
# [2] = Bulk (accelerated) stability, one week, HPLC and XRPD; details: initial chemical purity before storage; listed as Compound I monofumarate Pattern 1, monofumarate
# Experimental: Bulk stability: Accelerated stability experiments were conducted at 25° C./92% RH and 40° C./75% RH in an open container, 60° C. in a tight container for one week.
# Samples were characterized by XRPD and HPLC and inspected for color change.
# Accelerated stability experiments were conducted at 25° C./92% RH in an open container, at 40° C./75% RH in an open container, and at 60° C. in a tight container for one week.
# [3] = Tablet stability study (storage, purity by HPLC); format: physicochemical
# Experimental: Tablets were prepared using the excipients and excipient ratios shown in the first column of the following tables. The tablets were then stored under the conditions indicated and periodically sampled and tested for purity by HPLC.
# [4] = Solubility in buffers, water and simulated vaginal fluid at 37° C.; details: 37° C.
# Experimental: About 4 mg of Compound I Pattern 1 was added into 2 mL of buffer solution.
# (§6) Solubility was tested in five media, pH 3.0 citrate buffer, pH 4.5 acetate buffer, pH 6.8 phosphate buffer, water, simulated vaginal fluid (pH 4.2) at 37° C. for 0.5 h and 2 h.
# The salt amount used is equivalent to 10 mg anhydrous free base. […] The obtained clear solutions were analyzed by pH meter for pH, and solubility was determined by observation.
# as §6
# [5] = Hygroscopicity by DVS at 25° C.; format: physicochemical
# Experimental: Hygroscopicity was investigated by DVS at 25° C., using the following method: • Method: 40-0-95-0-40% RH, dm/dt=0.002
# C33A cells = assay: In vitro cytotoxicity, XTT, five days; details: read-out: C33A CC50, proliferating C33A cells
# Experimental: as §1, §2, §3, §4, §5
# Hs27 cells = tested on: Hs27 cells
# Experimental: as §1, §2, §3, §4, §5
# HeLa cells = tested on: HeLa cells
# Experimental: as §1, §2, §3, §4, §5
# [6] = ground manually with mortar and pestle for 5 min
smiles,measurement,setting,value
CCOC(=O)C(C)NP(=O)(COCCn1cnc2c(OC)nc(N)nc21)OCc1ccccc1 (mixture of isomers) [AB12280],CC50,"HEK293 cells; read-out: HEK293 CC50, proliferating HEK293 cells, XTT, five days",< 0.16 µM
"CCOC(=O)[C@H](C)NP(=O)(COCCn1cnc2c(OC)nc(N)nc21)OCc1ccccc1.O=C(O)/C=C/C(=O)O (mixture of isomers) [Compound I monofumarate, (±)-(2S)-ethyl-2-((((2-(2-amino-6-methoxy-9H-purin-9-yl)-ethoxy)-methyl)-(benzyloxy)-phosphoryl)-amino)-propionate monofumarate]",Form change by XRPD under compression,[1]; compressed 5 minutes at 10 MPa,no form change was observed
same,Crystallinity by XRPD after grinding,[1]; [6],crystallinity slightly decreased
same,Form change by XRPD after grinding,[1]; [6],no form change was observed
same,Form change by XRPD after granulation simulation,"[1]; wetted with water or ethanol, ground 3 minutes, dried","neither in ethanol, nor in water form change was observed"
same,"HPLC purity, Initial",[2],98.6%
same,Degradation of tablets compared with tablets produced from Compound I,"[3]; range of different formulations, purity by HPLC",degraded less
same,Degradation of tablets,[3]; within one month at 40° C. and 75% RH,far less degradation
same,pH at 2 hrs,[4]; solution in pH 3.0 100 mM citrate buffer,(3.05)
same,pH at 2 hrs,[4]; solution in pH 4.5 50 mM acetate buffer,(4.36)
same,pH at 2 hrs,[4]; solution in pH 6.8 50 mM phosphate buffer,(6.49)
same,pH at 2 hrs,[4]; solution in simulated vaginal fluid (pH adjusted with 0.2N NaOH),(5.39)
same,pH at 2 hrs,[4]; solution in water,(3.11)
same,Desorption (%) Cycle 1,"[5]; 0% RH, DVS 25° C.",0.49%
same,Desorption (%) Cycle 2,"[5]; 0% RH, DVS 25° C.",0.09%
same,Sorption (%) Cycle 1,"[5]; 0% RH, DVS 25° C.",0.49%
same,Sorption (%) Cycle 2,"[5]; 0% RH, DVS 25° C.",0.09%
same,Desorption (%) Cycle 1,"[5]; 10% RH, DVS 25° C.",0.62%
same,Desorption (%) Cycle 2,"[5]; 10% RH, DVS 25° C.",0.15%
same,Sorption (%) Cycle 1,"[5]; 10% RH, DVS 25° C.",0.56%
same,Sorption (%) Cycle 2,"[5]; 10% RH, DVS 25° C.",0.18%
same,Desorption (%) Cycle 1,"[5]; 20% RH, DVS 25° C.",0.71%
same,Desorption (%) Cycle 2,"[5]; 20% RH, DVS 25° C.",0.35%
same,Sorption (%) Cycle 1,"[5]; 20% RH, DVS 25° C.",0.66%
same,Sorption (%) Cycle 2,"[5]; 20% RH, DVS 25° C.",0.27%
same,Desorption (%) Cycle 1,"[5]; 30% RH, DVS 25° C.",0.81%
same,Desorption (%) Cycle 2,"[5]; 30% RH, DVS 25° C.",0.47%
same,Sorption (%) Cycle 1,"[5]; 30% RH, DVS 25° C.",0.76%
same,Sorption (%) Cycle 2,"[5]; 30% RH, DVS 25° C.",0.37%
same,Desorption (%) Cycle 1,"[5]; 40% RH, DVS 25° C.",0.93%
same,Desorption (%) Cycle 2,"[5]; 40% RH, DVS 25° C.",0.56%
same,Sorption (%) Cycle 1,"[5]; 40% RH, DVS 25° C.",0.86%
same,Sorption (%) Cycle 2,"[5]; 40% RH, DVS 25° C.",0.47%
same,Desorption (%) Cycle 2,"[5]; 50% RH, DVS 25° C.",0.67%
same,Sorption (%) Cycle 1,"[5]; 50% RH, DVS 25° C.",0.71%
same,Desorption (%) Cycle 2,"[5]; 60% RH, DVS 25° C.",0.85%
same,Sorption (%) Cycle 1,"[5]; 60% RH, DVS 25° C.",0.85%
same,Desorption (%) Cycle 2,"[5]; 70% RH, DVS 25° C.",1.04%
same,Sorption (%) Cycle 1,"[5]; 70% RH, DVS 25° C.",1.02%
same,Desorption (%) Cycle 2,"[5]; 80% RH, DVS 25° C.",1.30%
same,Sorption (%) Cycle 1,"[5]; 80% RH, DVS 25° C.",1.27%
same,Desorption (%) Cycle 2,"[5]; 90% RH, DVS 25° C.",1.84%
same,Sorption (%) Cycle 1,"[5]; 90% RH, DVS 25° C.",1.78%
same,Desorption (%) Cycle 2,"[5]; 95% RH, DVS 25° C.",2.89%
same,Sorption (%) Cycle 1,"[5]; 95% RH, DVS 25° C.",2.89%
same,XRPD after DVS test,"[5]; after humidity cycle 40-0-95-0-40% RH, 25° C.","No form change,"
same,Water uptake,"[5]; up to / in 95% RH, DVS 25° C.",about 2.9%
"CCOC(=O)[C@H](C)N[P@](=O)(COCCn1cnc2c(OC)nc(N)nc21)OCc1ccccc1 (single isomer, unassigned; isomer 1) [AB12280 Isomer 1]",CC50,HEK293 cells,< 0.16 µM
same,CC50,C33A cells,0.2 µM
same,CC50,Hs27 cells,23.2 µM
same,CC50,HeLa cells,15.1 µM
"CCOC(=O)[C@H](C)N[P@@](=O)(COCCn1cnc2c(OC)nc(N)nc21)OCc1ccccc1 (single isomer, unassigned; isomer 2) [AB12280 Isomer 2]",CC50,HEK293 cells,< 0.16 µM
same,CC50,C33A cells,< 0.16 µM
same,CC50,Hs27 cells,7.62 µM
same,CC50,HeLa cells,16.9 µM

# From patent US20250295679A1, “Compositions and Dosage Forms for Treatment of HPV Infection and HPV-Induced Neoplasia” (priority 2022, published 2025)
